Experimental data taken from patent US8580790B2, “(Heterocycle/condensed piperidine)-(piperazinyl)-1-alkanone or (heterocycle/condensed pyrrolidine)-(piperazinyl)-1-alkanone derivatives and use thereof as p75 inhibitors” (Sanofi, priority 2009, dated 2013).
Counter-ions that a name gives are not always drawn.

Row | SMILES | melting point
1 | C[C@@H]1CN(c2ccc(C(=O)O)cn2)C[C@H](C)N1CC(=O)N1CCc2nn(-c3ccccc3)cc2C1 [compound 149, 6-{(3S,5R)-3,5-dimethyl-4-[2-oxo-2-(2-phenyl-2,4,6,7-tetrahydropyrazolo[4,3-c]pyridin-5-yl)ethyl]piperazin-1-yl}nicotinic acid] | 208 to 209 °C
2 | O=C(CN1CCN(c2cccc(Cl)n2)CC1)N1CCc2nn(-c3ccccc3)cc2C1 [compound 114, 2-[4-(6-chloropyridin-2-yl)piperazin-1-yl]-1-(2-phenyl-2,4,6,7-tetrahydropyrazolo[4,3-c]pyridin-5-yl)ethanone] | 155 to 156 °C
3 | O=C(CN1CCN(c2ccc(C(F)(F)F)cn2)C(=O)C1)N1CCc2nn(-c3ccc(C(F)(F)F)cn3)cc2C1 [compound 65, 4-{2-oxo-2-[2-(5-trifluoromethylpyridin-2-yl)-2,4,6,7-tetrahydropyrazolo[4,3-c]pyridin-5-yl]ethyl}-1-(5-trifluoromethylpyridin-2-yl)piperazin-2-one] | 200 to 201 °C
4 | O=C(CN1CC2CCC(C1)N2c1ncc(F)cn1)N1CCc2nn(-c3ccc(C(F)(F)F)cn3)cc2C1 | 208 to 209 °C
5 | C[C@@H]1CN(c2ccc(C(=O)O)cn2)C[C@H](C)N1CC(=O)N1CCc2nn(-c3ccccn3)cc2C1 [compound 140, 6-{(3S,5R)-3,5-dimethyl-4-[2-oxo-2-(2-pyridin-2-yl-2,4,6,7-tetrahydropyrazolo[4,3-c]pyridin-5-yl)ethyl]piperazin-1-yl}nicotinic acid] | 147 to 150 °C
6 | O=C(CN1CCN(c2ccc(C(F)(F)F)cn2)C(=O)C1)N1CCc2nc(-c3ccc(F)cc3)[nH]c2C1 [compound 120, 4-{2-[2-(4-fluorophenyl)-3,4,6,7-tetrahydroimidazo[4,5-c]pyridin-5-yl]-2-oxoethyl}-1-(5-trifluoromethylpyridin-2-yl)piperazin-2-one] | 190 to 192 °C
7 | C[C@@H]1CN(c2ccc(C(F)(F)F)nc2)C[C@H](C)N1CC(=O)N1CCc2nn(-c3ccccc3)cc2C1 [compound 20, 2-[(2S,6R)-2,6-dimethyl-4-(6-trifluoromethylpyridin-3-yl)piperazin-1-yl]-1-(2-phenyl-2,4,6,7-tetrahydropyrazolo[4,3-c]pyridin-5-yl)ethanone] | 174 to 175 °C
8 | CCOC(=O)c1ccc(N2C[C@@H](C)N(CC(=O)N3CCc4nn(-c5ccccc5)cc4C3)[C@@H](C)C2)nc1 (as salt: HCl) [compound 79, 6-{(3S,5R)-3,5-dimethyl-4-[2-oxo-2-(2-phenyl-2,4,6,7-tetrahydropyrazolo[4,3-c]pyridin-5-yl)ethyl]piperazin-1-yl}nicotinic acid ethyl ester] | 235 to 236 °C
9 | C[C@@H]1CN(c2ccc(C(F)(F)F)cn2)C[C@H](C)N1CC(=O)N1CCc2nc(-c3ccccc3)[nH]c2C1 [compound 110, 2-[(2S,6R)-2,6-dimethyl-4-(5-trifluoromethylpyridin-2-yl)piperazin-1-yl]-1-(2-phenyl-3,4,6,7-tetrahydroimidazo[4,5-c]pyridin-5-yl)ethanone] | 189 to 192 °C
10 | Cc1nc(-c2ccc(N3C[C@@H](C)N(CC(=O)N4CCc5nn(-c6ccccc6)cc5C4)[C@@H](C)C3)nc2)no1 [compound 89, 2-{(2S,6R)-2,6-dimethyl-4-[5-(5-methyl[1,2,4]oxadiazol-3-yl)-pyridin-2-yl]piperazin-1-yl}-1-(2-phenyl-2,4,6,7-tetrahydropyrazolo[4,3-c]pyridin-5-yl)ethanone] | 163 to 164 °C
11 | C[C@@H]1CN(c2ccc(-c3nccs3)cn2)C[C@H](C)N1CC(=O)N1CCc2nn(-c3ccccc3)cc2C1 [compound 135, 2-[(2S,6R)-2,6-dimethyl-4-(5-thiazol-2-ylpyridin-2-yl)piperazin-1-yl]-1-(2-phenyl-2,4,6,7-tetrahydropyrazolo[4,3-c]pyridin-5-yl)ethanone] | 173 to 174 °C
12 | C[C@@H]1CN(c2ccc(C(F)(F)F)nc2)C[C@H](C)N1CC(=O)N1CCc2nc(-c3ccccc3)sc2C1 [compound 18, 2-[(2S,6R)-2,6-dimethyl-4-(6-trifluoromethylpyridin-3-yl)piperazin-1-yl]-1-(2-phenyl-6,7-dihydro-4H-thiazolo[5,4-c]pyridin-5-yl)ethanone] | 168 to 169 °C
13 | O=C(CN1CC2CC1CN2c1ccc(C(F)(F)F)nn1)N1CCc2nn(-c3ccc(C(F)(F)F)cn3)cc2C1 (stereo not shown) [compound 107, 2-[5-(6-trifluoromethylpyridazin-3-yl)-2,5-diazabicyclo[2.2.1]hept-2-yl]-1-[2-(5-trifluoromethylpyridin-2-yl)-2,4,6,7-tetrahydropyrazolo[4,3-c]pyridin-5-yl]ethanone] | 140 to 141 °C
14 | C[C@@H]1CN(c2cncnc2)C[C@H](C)N1CC(=O)N1CCc2nc(-c3ccccc3)sc2C1 [compound 22, 2-((2S,6R)-2,6-dimethyl-4-pyrimidin-5-yl-piperazin-1-yl)-1-(2-phenyl-6,7-dihydro-4H-thiazolo[5,4-c]pyridin-5-yl)ethanone] | 215 to 216 °C
15 | O=C(CN1CC2CCC(C1)N2c1ncc(F)cn1)N1CCc2c(cnn2-c2ccccc2)C1 | 148 to 150 °C
16 | Cc1noc(-c2ccc(N3C[C@@H](C)N(CC(=O)N4CCc5nn(-c6ccccc6)cc5C4)[C@@H](C)C3)nc2)n1 [compound 91, 2-{(2S,6R)-2,6-dimethyl-4-[5-(3-methyl-[1,2,4]oxadiazol-5-yl)-pyridin-2-yl]piperazin-1-yl}-1-(2-phenyl-2,4,6,7-tetrahydropyrazolo[4,3-c]pyridin-5-yl)ethanone] | 168 to 171 °C
17 | C[C@@H]1CN(c2ccc3ccccc3n2)C[C@H](C)N1CC(=O)N1CCc2nn(-c3ccccc3)cc2C1 [compound 129, 2-((2S,6R)-2,6-dimethyl-4-quinolin-2-ylpiperazin-1-yl)-1-(2-phenyl-2,4,6,7-tetrahydropyrazolo[4,3-c]pyridin-5-yl)ethanone] | 203 to 204 °C
18 | C[C@@H]1CN(CC(=O)N2CCc3nn(-c4ccccc4)cc3C2)[C@@H](C)CN1c1ccc(C(=O)O)cn1 [compound 53, 6-{(2R,5S)-2,5-dimethyl-4-[2-oxo-2-(2-phenyl-2,4,6,7-tetrahydropyrazolo[4,3-c]pyridin-5-yl)ethyl]piperazin-1-yl}nicotinic acid] | 165 to 167 °C
19 | C[C@@H]1CN(c2ccc(Cl)cn2)C[C@H](C)N1CC(=O)N1CCc2nn(-c3ccc(C(F)(F)F)cn3)cc2C1 [compound 112, 2-[(2S,6R)-4-(5-chloropyridin-2-yl)-2,6-dimethylpiperazin-1-yl]-1-[2-(5-trifluoromethylpyridin-2-yl)-2,4,6,7-tetrahydropyrazolo[4,3-c]pyridin-5-yl]ethanone] | 165 to 166 °C
20 | C[C@@H]1CN(c2ccc(-c3nnnn3C)cn2)C[C@H](C)N1CC(=O)N1CCc2nn(-c3ccccc3)cc2C1 [compound 86, 2-{(2S,6R)-2,6-dimethyl-4-[5-(1-methyl-1H-tetrazol-5-yl)pyridin-2-yl]piperazin-1-yl}-1-(2-phenyl-2,4,6,7-tetrahydropyrazolo[4,3-c]pyridin-5-yl)ethanone] | 198 to 199 °C
21 | C[C@@H]1CN(c2ccc(C(=O)O)cn2)C[C@H](C)N1CC(=O)N1CCc2nc(-c3ccccc3)[nH]c2C1 [compound 116, 6-{(3S,5R)-3,5-dimethyl-4-[2-oxo-2-(2-phenyl-3,4,6,7-tetrahydroimidazo[4,5-c]pyridin-5-yl)ethyl]piperazin-1-yl}nicotinic acid] | 190 to 192 °C
22 | CCn1cc2c(n1)CCN(C(=O)CN1CCN(c3ccc(C(F)(F)F)cn3)C(=O)C1)C2 [compound 148, 4-[2-(2-ethyl-2,4,6,7-tetrahydropyrazolo[4,3-c]pyridin-5-yl)-2-oxoethyl]-1-(5-trifluoromethylpyridin-2-yl)piperazin-2-one] | 151 to 152 °C
23 | O=C(CN1CCN(c2ccc(C(F)(F)F)cn2)C(=O)C1)N1CCc2nc(-c3ccccc3)oc2C1 [compound 96, 4-[2-oxo-2-(2-phenyl-6,7-dihydro-4H-oxazolo[5,4-c]pyridin-5-yl)ethyl]-1-(5-trifluoromethylpyridin-2-yl)piperazin-2-one] | 175 °C

The remaining lines, values ahead:

Row | melting point | SMILES
24 | 194 to 195 °C | COc1ccc(-n2ncc3c2CCN(C(=O)CN2CC4CCC(C2)N4c2ncc(F)cn2)C3)cc1
25 | 170 to 171 °C | O=C(CN1CC2CCC(C1)N2c1ccc(C(F)(F)F)cn1)N1CCc2nn(-c3ccccn3)cc2C1
26 | 159 to 160 °C | COC(=O)c1ccc(N2C3CCC2CN(CC(=O)N2CCc4nc(-c5ccc(OC)cc5)sc4C2)C3)nc1
27 | 137 to 138 °C | Cc1nc2c(s1)CN(C(=O)CN1CC3CCC(C1)N3c1ncc(F)cn1)CC2
28 | 196 to 198 °C | O=C(CN1CC2CCC(C1)N2c1ncc(F)cn1)N1CCc2nc(-c3ccc(F)cc3)sc2C1
29 | 240 to 244 °C | O=C(O)c1ccc(N2C3CCC2CN(CC(=O)N2CCc4nc(-c5ccc(F)cc5)sc4C2)C3)nc1
30 | 191 to 193 °C | COc1ccc(-c2nc3c(s2)CN(C(=O)CN2CCN(c4ccc(C(F)(F)F)cn4)C(=O)C2)CC3)cc1 [compound 34, 4-{2-[2-(4-methoxyphenyl)-6,7-dihydro-4H-thiazolo[5,4-c]pyridin-5-yl]-2-oxoethyl}-1-(5-trifluoromethylpyridin-2-yl)piperazin-2-one]
31 | 151 to 152 °C | O=C(CN1CC2CCC(C1)N2c1ncc(F)cn1)N1CCc2c(cnn2-c2ccc(F)cc2)C1
32 | 190 to 192 °C | Cc1nc(-c2ccc(N3C4CCC3CN(CC(=O)N3CCc5nc(-c6ccccc6)sc5C3)C4)nc2)no1
33 | 176 to 177 °C | O=C(OC1CCC1)c1ccc(N2C3CCC2CN(CC(=O)N2CCc4nn(-c5ccccc5)cc4C2)C3)nc1
34 | 250 to 251 °C | O=C(O)c1ccc(N2CC3CCC(C2)N3CC(=O)N2CCc3nc(-c4ccccc4)sc3C2)nc1
35 | 99 to 100 °C | CCn1cc2c(n1)CCN(C(=O)CN1CC3CCC(C1)N3c1ccc(C(F)(F)F)cn1)C2
36 | 155 °C | O=C(CN1CC2CCC(C1)N2c1ccc(C(F)(F)F)cn1)N1CCc2cc(-c3ccccc3)oc2C1
37 | 231 to 237 °C | O=C(CN1CCN(c2ccc(-c3ccn[nH]3)cn2)CC1)N1CCc2nc(-c3ccccc3)sc2C1 [compound 134, 1-(2-phenyl-6,7-dihydro-4H-thiazolo[5,4-c]pyridin-5-yl)-2-{4-[5-(2H-pyrazol-3-yl)pyridin-2-yl]piperazin-1-yl}ethanone]
